Reference: ChEMBL document CHEMBL1201862, “PubChem BioAssay data set” (2004)
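Protocol summary: plate cells (96-well), add compound at 5 concentrations, incubate 48 h, interpolate endpoints linearly. GI50: concentration for 50% inhibition of growth.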 The source made the active and inactive calls. No stated cut-off is given here; in the data, active = GI50 up to about 1.1 µM and inactive = higher.

What was measured:
Assay in all cases: NCI anticancer screen, dose series, 48 h
DU-145 = tested on: DU-145
M19-MEL = tested on: M19-MEL
NCI-H460 = tested on: NCI-H460
BT-549 = tested on: BT-549
NCI-H23 = tested on: NCI-H23
NCI/ADR-RES = tested on: NCI/ADR-RES
SF-295 = tested on: SF-295
SR = tested on: SR
HCT-15 = tested on: HCT-15
ACHN = tested on: ACHN
KM12 = tested on: KM12
NCI-H522 = tested on: NCI-H522
K562 = tested on: K562
UO-31 = tested on: UO-31
NCI-H226 = tested on: NCI-H226
SW-620 = tested on: SW-620
SK-MEL-5 = tested on: SK-MEL-5
IGROV-1 = tested on: IGROV-1
U-251 = tested on: U-251
TK-10 = tested on: TK-10

**Q.** `CCOc1ccc(/C(C=O)=C(\Cl)c2ccc(OC)cc2)cc1` was tested. Which GI50 (DU-145) did it give?
**A.** > 100 µM (inactive)

**Q.** And the GI50 (M19-MEL)?
**A.** > 100 µM (inactive)

**Q.** And the GI50 (NCI-H460)?
**A.** > 100 µM (inactive)

**Q.** What about the GI50 (BT-549) of the same compound?
**A.** > 100 µM (inactive)

**Q.** What about the GI50 (NCI-H23) of the same compound?
**A.** > 100 µM (inactive)

**Q.** And the GI50 (NCI/ADR-RES)?
**A.** 77.4 µM (inactive)

**Q.** And the GI50 (SF-295)?
**A.** > 100 µM (inactive)

**Q.** What about the GI50 (SR) of the same compound?
**A.** 5.16 µM (inactive)

**Q.** And the GI50 (HCT-15)?
**A.** 28.6 µM

**Q.** What about the GI50 (ACHN) of the same compound?
**A.** > 100 µM (inactive)

**Q.** What about the GI50 (KM12) of the same compound?
**A.** 56.6 µM (inactive)

**Q.** And the GI50 (NCI-H522)?
**A.** > 27.2 µM (inactive)

**Q.** And the GI50 (K562)?
**A.** 12.5 µM (inactive)

**Q.** And the GI50 (UO-31)?
**A.** > 57.1 µM (inactive)

**Q.** And the GI50 (NCI-H226)?
**A.** > 100 µM (inactive)

**Q.** And the GI50 (SW-620)?
**A.** > 100 µM (inactive)

**Q.** And the GI50 (SK-MEL-5)?
**A.** 41.7 µM (inactive)

**Q.** And the GI50 (IGROV-1)?
**A.** > 100 µM (inactive)

**Q.** What about the GI50 (U-251) of the same compound?
**A.** > 57.7 µM (inactive)

**Q.** And the GI50 (TK-10)?
**A.** > 100 µM (inactive)

**Q.** For `CCOC(=O)Nc1ccc2c(c1)N(C(=O)CCN(CC)CC)c1ccccc1S2` [ETHACIZINE], which GI50 (DU-145) is on record?
**A.** 50.1 µM (inactive)

**Q.** And the GI50 (M19-MEL)?
**A.** 32.1 µM (inactive)

**Q.** What about the GI50 (NCI-H460) of the same compound?
**A.** 20.1 µM (inactive)

**Q.** What about the GI50 (BT-549) of the same compound?
**A.** 28.1 µM (inactive)

**Q.** And the GI50 (NCI-H23)?
**A.** 31.8 µM (inactive)

**Q.** And the GI50 (NCI/ADR-RES)?
**A.** 45.2 µM (inactive)

**Q.** And the GI50 (SF-295)?
**A.** 22.1 µM (inactive)

**Q.** And the GI50 (SR)?
**A.** 17.5 µM (inactive)

**Q.** What about the GI50 (HCT-15) of the same compound?
**A.** 30.4 µM

**Q.** What about the GI50 (ACHN) of the same compound?
**A.** 29.8 µM (inactive)

**Q.** And the GI50 (KM12)?
**A.** 15.5 µM (inactive)

**Q.** And the GI50 (NCI-H522)?
**A.** 65.8 µM (inactive)

**Q.** And the GI50 (K562)?
**A.** 25.8 µM (inactive)

**Q.** And the GI50 (UO-31)?
**A.** 27.5 µM (inactive)

**Q.** What about the GI50 (NCI-H226) of the same compound?
**A.** 51.2 µM (inactive)

**Q.** And the GI50 (SW-620)?
**A.** 25.4 µM (inactive)

**Q.** And the GI50 (SK-MEL-5)?
**A.** 19.2 µM (inactive)

**Q.** What about the GI50 (IGROV-1) of the same compound?
**A.** 40.5 µM (inactive)

**Q.** What about the GI50 (U-251) of the same compound?
**A.** 26.6 µM (inactive)

**Q.** And the GI50 (TK-10)?
**A.** 32.9 µM (inactive)

**Q.** Which results are given for `C[C@H]1CC[P+](Cc2ccccc2)(c2ccccc2)C1` (some centres not stated)?
**A.** GI50 (M19-MEL): 26.8 µM (inactive); GI50 (NCI-H460): > 100 µM (inactive); GI50 (NCI-H23): > 100 µM (inactive); GI50 (SF-295): > 100 µM (inactive); GI50 (SR): 90.4 µM (inactive); GI50 (HCT-15): > 100 µM; GI50 (ACHN): > 100 µM (inactive); GI50 (KM12): > 100 µM (inactive); GI50 (NCI-H522): 76.7 µM (inactive); GI50 (K562): > 100 µM (inactive); GI50 (UO-31): > 100 µM (inactive); GI50 (NCI-H226): > 100 µM (inactive); GI50 (SW-620): > 100 µM (inactive); GI50 (SK-MEL-5): 22.2 µM (inactive); GI50 (IGROV-1): 64.7 µM (inactive); GI50 (U-251): 36.7 µM (inactive); GI50 (TK-10): > 100 µM (inactive)
